According to the NIST ThermoML archive (doi:10.1016/j.fluid.2017.07.006):
± gives the expanded uncertainty stated by the source.

Details: Liquid

CC(O)CO (centres undefined) [1,2-propanediol]
Details	mass density [kg/m3]	viscosity [mPa·s]
292.1 K, 101.33 kPa, Capillary tube (Ostwald / Ubbelohde) method	–	60.61 ± 0.37
293.1 K, 101.33 kPa, Capillary tube (Ostwald / Ubbelohde) method	–	58.09 ± 0.34
293.15 K, 101.33 kPa, Pycnometric method	1035.5 ± 0.3	–
298.15 K, 98 kPa, Buoyancy - hydrostatic balance	1032.56 ± 1.6	–
298.15 K, 98 kPa, Falling or rolling sphere viscometry	–	43.69 ± 0.96
298.15 K, 101.33 kPa, Capillary tube (Ostwald / Ubbelohde) method	–	43.69 ± 0.33
298.15 K, 101.33 kPa, Pycnometric method	1032.56 ± 0.28	–
298.15 K, 49030 kPa, Buoyancy - hydrostatic balance	1055.29 ± 1.6	–
298.15 K, 49030 kPa, Falling or rolling sphere viscometry	–	64.02 ± 1.4
298.15 K, 98060 kPa, Buoyancy - hydrostatic balance	1072.94 ± 1.6	–
298.15 K, 98060 kPa, Falling or rolling sphere viscometry	–	94.28 ± 2.7
298.15 K, 147100 kPa, Buoyancy - hydrostatic balance	1088.48 ± 3.3	–
298.15 K, 147100 kPa, Falling or rolling sphere viscometry	–	134.1 ± 4.9
298.15 K, 196130 kPa, Buoyancy - hydrostatic balance	1104.32 ± 3.3	–
298.15 K, 196130 kPa, Falling or rolling sphere viscometry	–	187.2 ± 8.5
298.15 K, 245160 kPa, Buoyancy - hydrostatic balance	1115.28 ± 3.4	–
298.15 K, 245160 kPa, Falling or rolling sphere viscometry	–	260.7 ± 15
303.15 K, 98 kPa, Buoyancy - hydrostatic balance	1028.87 ± 1.5	–
303.15 K, 98 kPa, Falling or rolling sphere viscometry	–	32.35 ± 0.71
303.15 K, 49030 kPa, Buoyancy - hydrostatic balance	1052.03 ± 1.6	–
303.15 K, 49030 kPa, Falling or rolling sphere viscometry	–	48.25 ± 1.1
303.15 K, 98060 kPa, Buoyancy - hydrostatic balance	1070.79 ± 1.6	–
303.15 K, 98060 kPa, Falling or rolling sphere viscometry	–	69.46 ± 1.6
303.15 K, 147100 kPa, Buoyancy - hydrostatic balance	1086.25 ± 3.3	–
303.15 K, 147100 kPa, Falling or rolling sphere viscometry	–	97.33 ± 2.8
303.15 K, 196130 kPa, Buoyancy - hydrostatic balance	1101.4 ± 3.3	–
303.15 K, 196130 kPa, Falling or rolling sphere viscometry	–	134.7 ± 5
303.15 K, 245160 kPa, Buoyancy - hydrostatic balance	1112.65 ± 3.3	–
303.15 K, 245160 kPa, Falling or rolling sphere viscometry	–	183.3 ± 8.3
303.4 K, 101.33 kPa, Capillary tube (Ostwald / Ubbelohde) method	–	31.54 ± 0.21
312.98 K, 98 kPa, Buoyancy - hydrostatic balance	1022.16 ± 1.5	–
312.98 K, 98 kPa, Falling or rolling sphere viscometry	–	19.45 ± 0.42
313 K, 49030 kPa, Buoyancy - hydrostatic balance	1046.22 ± 1.6	–
313 K, 49030 kPa, Falling or rolling sphere viscometry	–	28.34 ± 0.61
313.03 K, 147100 kPa, Buoyancy - hydrostatic balance	1081.67 ± 3.2	–
313.03 K, 147100 kPa, Falling or rolling sphere viscometry	–	54.68 ± 1.1
313.03 K, 245160 kPa, Buoyancy - hydrostatic balance	1107.51 ± 3.3	–
313.03 K, 245160 kPa, Falling or rolling sphere viscometry	–	98.04 ± 2.9
313.04 K, 196130 kPa, Buoyancy - hydrostatic balance	1095.69 ± 3.3	–
313.04 K, 196130 kPa, Falling or rolling sphere viscometry	–	73.88 ± 1.8
313.05 K, 98060 kPa, Buoyancy - hydrostatic balance	1065.24 ± 1.6	–
313.05 K, 98060 kPa, Falling or rolling sphere viscometry	–	39.87 ± 0.86
313.15 K, 101.33 kPa, Pycnometric method	1021.9 ± 0.3	–
313.9 K, 101.33 kPa, Capillary tube (Ostwald / Ubbelohde) method	–	19.37 ± 0.15
316 K, 101.33 kPa, Capillary tube (Ostwald / Ubbelohde) method	–	17.04 ± 0.14
332.1 K, 101.33 kPa, Capillary tube (Ostwald / Ubbelohde) method	–	8.76 ± 0.058
333.15 K, 101.33 kPa, Pycnometric method	1006.3 ± 0.4	–
335.76 K, 98060 kPa, Buoyancy - hydrostatic balance	1050.34 ± 1.6	–
335.76 K, 98060 kPa, Falling or rolling sphere viscometry	–	14.23 ± 0.31
335.78 K, 98 kPa, Buoyancy - hydrostatic balance	1005.31 ± 1.5	–
335.78 K, 98 kPa, Falling or rolling sphere viscometry	–	7.524 ± 0.16
335.78 K, 147100 kPa, Buoyancy - hydrostatic balance	1068.19 ± 3.2	–
335.78 K, 147100 kPa, Falling or rolling sphere viscometry	–	18.86 ± 0.41
335.8 K, 49030 kPa, Buoyancy - hydrostatic balance	1029.3 ± 1.6	–
335.8 K, 49030 kPa, Falling or rolling sphere viscometry	–	10.59 ± 0.23
335.8 K, 196130 kPa, Buoyancy - hydrostatic balance	1082.92 ± 3.2	–
335.8 K, 196130 kPa, Falling or rolling sphere viscometry	–	24.61 ± 0.54
336.01 K, 245160 kPa, Buoyancy - hydrostatic balance	1095.8 ± 3.3	–
336.01 K, 245160 kPa, Falling or rolling sphere viscometry	–	30.53 ± 0.67
353.15 K, 101.33 kPa, Pycnometric method	990.28 ± 0.4	–
353.4 K, 101.33 kPa, Capillary tube (Ostwald / Ubbelohde) method	–	4.29 ± 0.061
353.6 K, 101.33 kPa, Capillary tube (Ostwald / Ubbelohde) method	–	4.18 ± 0.06
364.39 K, 98 kPa, Buoyancy - hydrostatic balance	981.63 ± 1.5	–
364.39 K, 98 kPa, Falling or rolling sphere viscometry	–	3.034 ± 0.065
364.66 K, 49030 kPa, Buoyancy - hydrostatic balance	1007.36 ± 1.5	–
364.66 K, 49030 kPa, Falling or rolling sphere viscometry	–	4.074 ± 0.088
364.83 K, 98060 kPa, Buoyancy - hydrostatic balance	1031.15 ± 1.6	–
364.83 K, 98060 kPa, Falling or rolling sphere viscometry	–	5.292 ± 0.11
364.87 K, 147100 kPa, Buoyancy - hydrostatic balance	1051.61 ± 3.2	–
364.87 K, 147100 kPa, Falling or rolling sphere viscometry	–	6.718 ± 0.14
364.99 K, 245160 kPa, Buoyancy - hydrostatic balance	1081.56 ± 3.2	–
364.99 K, 245160 kPa, Falling or rolling sphere viscometry	–	10.31 ± 0.22
365 K, 196130 kPa, Buoyancy - hydrostatic balance	1067.32 ± 3.2	–
365 K, 196130 kPa, Falling or rolling sphere viscometry	–	8.372 ± 0.18
365.15 K, 101.33 kPa, Pycnometric method	978.97 ± 0.42	–
368.15 K, 101.33 kPa, Pycnometric method	977.28 ± 0.42	–
388.6 K, 101.33 kPa, Capillary tube (Ostwald / Ubbelohde) method	–	1.767 ± 0.015
389.3 K, 101.33 kPa, Capillary tube (Ostwald / Ubbelohde) method	–	1.7 ± 0.014
394.95 K, 98 kPa, Buoyancy - hydrostatic balance	953.22 ± 1.4	–
394.95 K, 98 kPa, Falling or rolling sphere viscometry	–	1.504 ± 0.032
395.11 K, 49030 kPa, Buoyancy - hydrostatic balance	982.98 ± 1.5	–
395.11 K, 49030 kPa, Falling or rolling sphere viscometry	–	1.954 ± 0.042
395.17 K, 98060 kPa, Buoyancy - hydrostatic balance	1010.62 ± 1.5	–
395.17 K, 98060 kPa, Falling or rolling sphere viscometry	–	2.451 ± 0.052
395.38 K, 147100 kPa, Buoyancy - hydrostatic balance	1033.92 ± 3.1	–
395.38 K, 147100 kPa, Falling or rolling sphere viscometry	–	3.011 ± 0.065
395.57 K, 196130 kPa, Buoyancy - hydrostatic balance	1051.9 ± 3.2	–
395.57 K, 196130 kPa, Falling or rolling sphere viscometry	–	3.659 ± 0.078
395.68 K, 245160 kPa, Buoyancy - hydrostatic balance	1067.12 ± 3.2	–
395.68 K, 245160 kPa, Falling or rolling sphere viscometry	–	4.374 ± 0.094
399.15 K, 101.33 kPa, Pycnometric method	949.76 ± 0.49	–
423.3 K, 101.33 kPa, Capillary tube (Ostwald / Ubbelohde) method	–	0.926 ± 0.006
423.51 K, 98 kPa, Buoyancy - hydrostatic balance	926.76 ± 1.4	–
423.51 K, 98 kPa, Falling or rolling sphere viscometry	–	0.925 ± 0.02
423.62 K, 49030 kPa, Buoyancy - hydrostatic balance	959.18 ± 1.4	–
423.62 K, 49030 kPa, Falling or rolling sphere viscometry	–	1.239 ± 0.026
423.65 K, 101.33 kPa, Pycnometric method	925.92 ± 0.54	–
423.9 K, 98060 kPa, Buoyancy - hydrostatic balance	989.94 ± 1.5	–
423.9 K, 98060 kPa, Falling or rolling sphere viscometry	–	1.533 ± 0.033
423.97 K, 147100 kPa, Buoyancy - hydrostatic balance	1016.34 ± 3	–
423.97 K, 147100 kPa, Falling or rolling sphere viscometry	–	1.89 ± 0.04
424.05 K, 196130 kPa, Buoyancy - hydrostatic balance	1038.38 ± 3.1	–
424.05 K, 196130 kPa, Falling or rolling sphere viscometry	–	2.244 ± 0.048
424.3 K, 245160 kPa, Buoyancy - hydrostatic balance	1054.25 ± 3.2	–
424.3 K, 245160 kPa, Falling or rolling sphere viscometry	–	2.608 ± 0.056
450.15 K, 101.33 kPa, Pycnometric method	896.89 ± 0.59	–
452.07 K, 245160 kPa, Buoyancy - hydrostatic balance	1042.31 ± 3.1	–
452.07 K, 245160 kPa, Falling or rolling sphere viscometry	–	1.656 ± 0.035
452.1 K, 49030 kPa, Buoyancy - hydrostatic balance	934.51 ± 1.4	–
452.1 K, 49030 kPa, Falling or rolling sphere viscometry	–	0.81 ± 0.017
452.14 K, 98060 kPa, Buoyancy - hydrostatic balance	965.53 ± 1.4	–
452.14 K, 98060 kPa, Falling or rolling sphere viscometry	–	0.995 ± 0.021
452.17 K, 98 kPa, Buoyancy - hydrostatic balance	900.36 ± 1.4	–
452.17 K, 98 kPa, Falling or rolling sphere viscometry	–	0.604 ± 0.013
452.18 K, 196130 kPa, Buoyancy - hydrostatic balance	1022.83 ± 3.1	–
452.18 K, 196130 kPa, Falling or rolling sphere viscometry	–	1.425 ± 0.03
452.19 K, 147100 kPa, Buoyancy - hydrostatic balance	996.01 ± 3	–
452.19 K, 147100 kPa, Falling or rolling sphere viscometry	–	1.212 ± 0.026
458.9 K, 101.33 kPa, Capillary tube (Ostwald / Ubbelohde) method	–	0.533 ± 0.004
